The values below come from patent publication US9187496B2 (priority 2009, dated 2015).

The test system of series [1] is Huh-7 cells containing HCV Con1 subgenomic replicon (GS4.1 cells). The series is described as follows: HCV replicon assay (NS5A ELISA). Type of series: cell-based. The conditions noted are these: Hepatitis C virus, Huh-7; GS4.1 cells, 72 hrs, NS5A ELISA; read-out: EC50. How it is done:
General Procedure: Huh-7 cells containing HCV Con1 subgenomic replicon (GS4.1 cells) were grown in Dulbecco's Modified Eagle Medium (DMEM) supplemented with 10% fetal bovine serum (FBS), 2 mM L-glutamine, 110 mg/L sodium pyruvate, 1× non-essential amino acids, 100 U/mL penicillin-streptomycin, and 0.5 mg/mL G418 (Invitrogen). For dose-response testing, the cells were seeded in 96-well plates at 7.5×10^3 cells/well in a volume of 50 μL, and incubated at 37° C./5% CO2. Three hours after plating, 50 μL of ten 2-fold serial dilutions of compounds (highest concentration, 75 μM) were added, and cell cultures were incubated at 37° C./5% CO2 in the presence of 0.5% DMSO. Alternatively, compounds were tested at a single concentration of 15 μM. In all cases, Huh-7 cells lacking the HCV replicon served as negative control. The cells were incubated in the presence of compounds for 72 hrs after which they were monitored for expression of the NS5A protein by enzyme-linked immunosorbent assay (ELISA). For this, the plates were then fixed for 1 min with acetone/methanol (1:1, v/v), washed twice with phosphate-buffered saline (PBS), 0.1% Tween 20, blocked for 1 hr at room temperature with TNE buffer containing 10% FBS and then incubated for 2 hr at 37° C. with the anti-NS5A mouse monoclonal antibody A-236 (ViroGen) diluted in the same buffer. After washing three times with PBS, 0.1% Tween 20, the cells were incubated 1 hr at 37° C. with anti-mouse immunoglobulin G-peroxidase conjugate in TNE, 10% FBS. After washing as described above, the reaction was developed with O-phenylenediamine (Zymed). The reaction was stopped after 30 min with 2 N H2SO4, and absorbance was read at 492 nm using Sunrise Tecan spectrophotometer. EC50 values were determined from the % inhibition versus concentration data using a sigmoidal non-linear regression analysis based on four parameters with Tecan Magellan software.
A general note: Replicon systems follow genome replication, usually without infectious particles.

Series [2] relates to GS4.1 cells. The series is described as follows: Cytotoxicity evaluation in GS4.1 cells (Cell Titer 96 AQueous One). Type of series: cell-based, human. The conditions noted are these: cellular viability. How it is done: For cytotoxicity evaluation, GS4.1 cells were treated with compounds as described above and cellular viability was monitored using the Cell Titer 96 AQueous One Solution Cell Proliferation Assay (Promega). CC50 values were determined from the % cytotoxicity versus concentration data with Tecan Magellan software as described above.

Series [3] deals with HCV genotype 1b Conl strain subgenomic luciferase replicon (Zluc). The series is described as follows: Luciferase replicon assay, genotype 1b. It counts as cell-based. The conditions noted are these: Hepatitis C virus, 72 h, read-out: EC50 1b. How it is done: (§1) The HCV luciferase replicon assay measures the ability of a test compound to inhibit HCV replication in cell culture after 3 days of treatment in a human hepatoma cell line (Huh-7) bearing a HCV replicon containing a luciferase-neomycin phosphotransferase fusion gene. The inhibition of HCV replication was measured by quantification of luciferase protein expression. Briefly, Huh-7 cells containing either the HCV genotype 1a H77 strain or genotype 1b Conl strain subgenomic luciferase replicon (H1a-luc or Zluc, respectively) were grown in DMEM containing glucose, L-glutamine and sodium pyruvate, 10% fetal bovine serum (FBS), 100 IU/mL penicillin, 100 μg/mL streptomycin, 2 mM GlutaMAX, non-essential amino acids and 0.25 (H1a-luc) or 0.5 (Zluc) mg/mL G418. GlutaMAX was obtained from Invitrogen, Corp.; all other media reagents were obtained from Mediatech, Inc. For dose-response testing, the cells were seeded in 96-well plates at 1×10^4 (H1a-luc) or 7.5×10^3 (Zluc) cells/well in a volume of 50 μL, and incubated at 37° C./5% CO2. Three hours after plating, 50 μL of ten 5-fold serial dilutions of compound were added, and cell cultures were incubated at 37° C./5% CO2 for 72 hours. In all cases, Huh-7 cells lacking the HCV replicon served as negative control. To assess luciferase expression, the media/compound was removed from the plates and ONE-glo Luciferase assay reagent (Promega) was added to each well. The assay plates were shaken for 3 minutes at room temperature and luciferase activity for each well was measured with a 1 sec read time on the Victor^3V multilabel counter using a 700 nm cut-off filter (Perkin Elmer). EC50 values were calculated from dose response curves from the resulting best-fit equations determined by Microsoft Excel and XLfit 4.1 software.

Series [4] relates to HCV genotype 2a-specific NS5A gene within the 1b-replicon. The series is described as follows: Luciferase replicon assay, NS5A-intergenotypic stable cell line genotype 2a. Type of series: cell-based. The conditions noted are these: Hepatitis C virus, read-out: EC50 2a.
Excerpt: (§2) The nucleotide sequences of the NS5A region of genotype 2a (GenBank Accession #AB047639), genotype 3a (GenBank Accession #D17763), and genotype 4a (GenBank Accession#DQ418788) were synthesized by an outside vendor. The NS5A region of each of these genotypes included the first 11 amino acids of the protease recognition sequence of genotype 1b, as well as the last 10 amino acids of genotype 1b. The NS5A gene cassettes were excised with site specific restriction endonucleases and ligated into a ZS11-luciferase genotype 1b backbone (backbone contains the genotype 1b NS3 protease, NS4a, NS4b, and NS5b coding regions) with similarly cut restriction enzyme sites. Thus, the newly constructed plasmid contains a genotype 2a-, 3a- or 4a-specific NS5A gene within the 1b-replicon.
(§3) These new intergenotypic plasmids were used to establish stable cell lines. RNA was generated from the NS5A intergenotypic plasmids and used in conjunction with a lipofectin reagent to transfect a cured Huh7 cell line. Transfected cells were selected for with G418. After selection has occurred the stable cell lines were propagated, tested for luciferase activity, and RT-PCR with genotype specific primers (either 1a, 2a, 3a, or 4a). Stable cell lines containing the intergenotypic replicon were then fully sequenced and analysed for proper expression of NS3, NS5A and NS5B proteins.
(§4) Drug titration analysis was performed using the luciferase replicon assay described herein.
as §1

In series [5] the test system is HCV genotype 3a-specific NS5A gene within the 1b-replicon. The series is described as follows: Luciferase replicon assay, NS5A-intergenotypic stable cell line genotype 3a. It counts as cell-based. The conditions noted are these: Hepatitis C virus, read-out: EC50 3a.
Excerpt: as §2, §3, §4, §1

Series [6] deals with HCV genotype 4a-specific NS5A gene within the 1b-replicon. The series is described as follows: Luciferase replicon assay, NS5A-intergenotypic stable cell line genotype 4a. To be noted: Hepatitis C virus, read-out: EC50 4a. Type of series: cell-based.
Excerpt: as §2, §3, §4, §1

Series [7] in a line: Cytotoxicity evaluation in luciferase replicon cells (Cell Titer 96 AQueous One). To be noted: human; Table 1B, cellular viability. It counts as cell-based, human. The procedure:
For cytotoxicity evaluation, H1a-luc or Zluc cells were treated with compounds as described above and cellular viability was monitored using the Cell Titer 96 AQueous One Solution Cell Proliferation Assay (Promega). Plates were then read at 490 nm in a Victor^3V 1420 multilabel counter (Perkin Elmer) and CC50 concentrations were determined using Microsoft Excel and XLfit 4.1 software.

On to `COC(=O)N[C@H](C(=O)N1CCCC1c1ncc(-c2ccc(-c3cc4sc(Br)cc4s3)cc2)[nH]1)C(C)C` (stereo partly drawn) [A168], for which the EC50 (usually the concentration that produces a half-maximal response) in series [1] fell in the range of 10 to 100 nM. Further, the cytotoxic concentration (CC50) – broadly, the concentration at which the toxic effect on the cells reaches its halfway point – in series [2] was in the range of 10000 to 75000 nM.
In the case of `COC(=O)N[C@H](C(=O)N1CCC[C@H]1c1ncc(-c2ccc(-c3cn4cc(NC(=O)[C@@H]5CCCN5C(=O)[C@H](NC(=O)OC(C)(C)C)c5ccccc5)nc4s3)cc2)[nH]1)C(C)C` [Compound A1, (S,S,S,R)-[1-(2-{5-[4-(6-{[1-(2-tert-butoxycarbonylamino-2-phenyl-acetyl)-pyrrolidine-2-carbonyl]-amino}imidazo[2,1-b]thiazol-2-yl)-phenyl]-1H-imidazol-2-yl}pyrrolidine-1-carbonyl)-2-methyl-propyl]-carbamic acid methyl ester], the EC50 in series [1] is below 1 nM. This compound also yielded a half-maximal cytotoxic concentration (CC50) in series [2] above 75000 nM.
On the same counts, the results for `COC(=O)N[C@H](C(=O)N1CCC[C@H]1C(=O)Nc1cn2cc(-c3ccc(-c4cnc([C@@H]5CCCN5C(=O)[C@@H](NC(=O)OC)C(C)C)[nH]4)cc3)sc2n1)C(C)C` [Compound A2, (S,S,S,S)-(1-{2-[2-(4-{2-[1-(2-methoxycarbonylamino-3-methyl-butyryl)-pyrrolidin-2-yl]-3H-imidazol-4-yl}-phenyl)-imidazo[2,1-b]thiazol-6-ylcarbamoyl]-pyrrolidine-1-carbonyl}-2-methyl-propyl)-carbamic acid methyl ester] are 1 to 10 nM and 10000 to 75000 nM.
The like results for `CC(C)(C)OC(=O)N[C@@H](C(=O)N1CCOC[C@H]1C(=O)Nc1cn2cc(-c3ccccc3)sc2n1)c1ccccc1` [Compound A22] were, in that order, above 100 nM and above 75000 nM.
The like results for `CC(C)(C)OC(=O)N[C@@H](C(=O)N1CCC[C@H]1C(=O)Nc1cn2cc(C#Cc3ccccc3)sc2n1)c1ccccc1` [Compound A23] were, in that order, above 100 nM and 10000 to 75000 nM.
`COC(=O)N[C@H](C(=O)N1CCC[C@H]1c1ncc(-c2ccc(-c3cn4cc(NC(=O)[C@@H]5CCCN5C(=O)[C@H](NC(=O)OC)c5ccccc5)nc4s3)cc2)[nH]1)C(C)C` [Compound A30, (S,S,S,R)-[1-(2-{5-[4-(6-{[1-(2-methoxycarbonylamino-2-phenyl-acetyl)-pyrrolidin-2-carbonyl]-amino}-imidazo[2,1-b]thiazol-2-yl)-phenyl]-1H-imidazol-2-yl}-pyrrolidine-1-carbonyl)-2-methyl-propyl]-carbamic acid methyl ester]: in series [1], the concentration giving a half-maximal response (EC50) was below 1 nM. Further, the CC50 in series [2] was above 75000 nM.
In the case of `CCOC(=O)N[C@@H](C(=O)N1CCC[C@H]1C(=O)Nc1cn2cc(-c3ccc(-c4cnc([C@@H]5CCCN5C(=O)[C@@H](NC(=O)OC)C(C)C)[nH]4)cc3)sc2n1)c1ccccc1` [Compound A55, (S,S,S,R)-[1-(2-{5-[4-(6-{[1-(2-ethoxycarbonylamino-2-phenylacetyl)-pyrrolidine-2-carbonyl]-amino}imidazo[2,1-b]thiazol-2-yl)-phenyl]-1H-imidazol-2-yl}pyrrolidine-1-carbonyl)-2-methyl-propyl]-carbamic acid methyl ester], in series [1], the concentration for a half-maximal effect (EC50) was below 1 nM. The compound also displayed a cytotoxic concentration (CC50) in series [2] of 10000 to 75000 nM.
Take `COC(=O)N[C@H](C(=O)N1CCC[C@H]1c1ncc(-c2csc3c(-c4cnc([C@@H]5CCCN5C(=O)[C@@H](NC(=O)OC)C(C)C)[nH]4)csc23)[nH]1)C(C)C` [Compound A82, ((S)-1-{(S)-2-[5-(6-{2-[(S)-1-((S)-2-methoxycarbonylamino-3-methyl-butyryl)-pyrrolidin-2-yl]-3H-imidazol-4-yl}-thieno[3,2-b]thiophen-3-yl)-1H-imidazol-2-yl]-pyrrolidine-1-carbonyl}-2-methyl-propyl)-carbamic acid methyl ester]: the EC50 in series [1] was below 1 nM. In series [2], this compound had a cytotoxic concentration (CC50) of 10000 to 75000 nM.
Turning to `COC(=O)N[C@H](C(=O)N1CCCC1c1nc(-c2cc3sc(-c4cnc([C@@H]5CCCN5C(=O)[C@@H](NC(=O)OC)C(C)C)[nH]4)cc3s2)c[nH]1)C(C)C` (stereo partly drawn) [Compound A101], the 50% effective concentration (EC50) was below 0.1 nM in series [3], 1 to 10 nM in series [4], 1 to 10 nM in series [5] and 1 to 10 nM in series [6]. Also, in series [7], the 50% cytotoxic concentration (CC50) at 72 h was above 75000 nM.
On to `COC(=O)N[C@H](C(=O)N1CCCC1c1nc(-c2ccc(-c3c(C(=O)OC)[nH]c4c(-c5ccc(-c6cnc(C7CCCN7C(=O)[C@@H](NC(=O)OC)C(C)C)[nH]6)cc5)csc34)cc2)c[nH]1)C(C)C` (stereo partly drawn) [Compound A163], for which, in series [1], the concentration giving a half-maximal response (EC50) is below 1 nM. This compound registered a CC50 in series [2] above 75000 nM.
For `COC(=O)N[C@H](C(=O)N1CCC[C@H]1c1nc2cc(-c3csc4c(-c5ccc(-c6cnc([C@@H]7CCCN7C(=O)[C@H](NC(=O)OC)c7ccccc7)[nH]6)cc5)csc34)ccc2[nH]1)C(C)C` [Compound A169, [(S)-1-((S)-2-{6-[6-(4-{(S)-2-[1-((R)-2-methoxycarbonylamino-2-phenyl-acetyl)-pyrrolidin-2-yl]-3H-imidazol-4-yl}-phenyl)-thieno[3,2-b]thiophen-3-yl]-1H-benzoimidazol-2-yl}-pyrrolidine-1-carbonyl)-2-methyl-propyl]-carbamic acid methyl ester], the half-maximal effective concentration (EC50) in series [3], in series [4], in series [5] and in series [6] was below 0.1 nM each time. Besides, the half-maximal cytotoxic concentration (CC50) at 72 h in series [7] is above 75000 nM.
For `COC(=O)N[C@H](C(=O)N1CCCC1c1ncc(-c2ccc(-n3ccc4c(-c5cnc(C6CCCN6C(=O)[C@@H](NC(=O)OC)C(C)C)[nH]5)csc43)c(Cl)c2)[nH]1)C(C)C` (stereo partly drawn) [Compound A213], the EC50 in series [3] is below 0.1 nM. This compound registered a CC50 at 72 h in series [7] of 10000 to 75000 nM.
